In patent US20180186796A1, “COMPOUNDS AND USES THEREOF” (LEAD DISCOVERY SIENA S.R.L., priority 2014, published 2018):
Read-outs that look alike come from different tables or passages of the source.

Experiments:
[1] = Microsomal stability assay
U87 cells [2] = test: Orthotopic mouse model of GBM; assay type: in vivo, mice; conditions: 50 mg/kg three times per week for 4 weeks
Method: Survival curves (days) of orthotopic mouse model of GBM.
Male CD1 nude mice (Charles River, Milan, Italy) were maintained under the guidelines established by University of L'Aquila, Medical School and Science and Technology School Board Regulations, complying with the Italian government regulations for the use of laboratory animals. Before any invasive manipulation, mice were anesthetized with a mixture of ketamine (25 mg/ml)/xylazine (5 mg/ml). Tumor grafts were obtained by injecting with a Hamilton syringe mounted on a stereotactic instrument, 2*10^3 U87 cells resuspended in 2 microL PBS (David Kopf Instruments, CA, USA). The cells were injected after the exposition of periosteal cranic site and the drimming of a 1 mm diameter hole localized at 4 mm from striatum and with a depth of 4 mm. The wound was treated with antibiotics and was surgically sutured.

hBMEC endothelial cells = test: Sprouting assay; assay type: cell-based; conditions: 0.5 μM and 1 μM, 24 h
Method: The brain microvascular endothelial cell line hBMEC was purchased from ScienCell Research Laboratory (Carlsbad, Calif., USA). HBMEC cells were suspended in culture medium containing 20% methylcellulose, seeded at a density of 1000 cells/well, into nonadhesive 96 well plate and cultured at 37° C. (5% CO2, 100% humidity). Under these conditions, suspended endothelial cells (EC) form spontaneously within 4 h a single cell aggregate known as spheroid. Spheroids were harvested within 24 h and used for in gel sprouting angiogenesis experiments. Briefly, spheroids were seeded in micro-slides coated with Matrigel and images were observed after 24 h, captured by an inverted microscope and analysed with the NIH Image J analysis system. For statistical analysis, number of sprouts per spheroid, with a minimum of 10 spheroids for each treatment, was considered.

U87 cells [3] = test: U87 xenograft; assay type: in vivo, mice
Method: Male CD1 nude mice (Charles River, Milan, Italy) were maintained under the guidelines established by University of L'Aquila, Medical School and Science and Technology School Board Regulations, complying with the Italian government regulations for the use of laboratory animals. Before any invasive manipulation, mice were anesthetized with a mixture of ketamine (25 mg/ml)/xylazine (5 mg/ml). Tumor grafts were obtained by injecting s.c. 1×10^6 U87 cells in 100 μL of 12 mg/mL Matrigel (Becton Dickinson, Franklin Lakes, N.J., USA). Mice were divided in four groups: treated with vehicle, treated with radiotherapy, treated with Si306 and treated with Si306 in combination with radiotherapy. […] At the endpoint, tumors were recovered and weighted. The tumor xenograft was irradiated once with 4Gy dose at first sign of palpable tumor mass.
Antibodies were purchased from Cell Signaling (Cell Signaling Technology, Inc.).

[4] = PAMPA, intestinal (GI) permeability; conditions: Membrane Retention, GI
Recombinant human Src = target: T1, Recombinant human Src (Homo sapiens, UniProt P12931); test: Enzymatic assay on isolated Src; assay type: biochemical
T1 construct: purchased Upstate (Lake Placid, N.Y.)
Text: Recombinant human Src was purchased from Upstate (Lake Placid, N.Y.).

[5] = tested on: SH-SY5Y neuroblastoma cells; test: SH-SY5Y xenograft mouse model; assay type: in vivo, mice
Method: Male CD1 nude mice (Charles River, Milan, Italy) were maintained under the guidelines established by the inventors' Institution (University of L'Aquila, Medical School and Science and Technology School Board Regulations, complying with the Italian government regulation n. 116 Jan. 27 1992 for the use of laboratory animals). Before any invasive manipulation, mice were anesthetized with a mixture of ketamine (25 mg/mL)/xylazine (5 mg/mL). Tumor grafts were obtained by injecting s.c. 1×10^6 SH-SY5Y cells in 100 μL of 12 mg/mL Matrigel (Becton Dickinson, Franklin Lakes, N.J., USA). Tumor growth was monitored daily by measuring the average tumor diameter. The tumor volume was expressed in mm^3 according to the formula 4/3πr^3.

U87 cells [6] = test: Proliferation assay on U87 cells; assay type: cell-based, human
Method: (§1) U87 and U251 cells were purchased from European Collection of Cell Cultures (ECACC, Salisbury, UK) and were cultured in DMEM medium supplemented with 10% Foetal Bovine Serum. In order to determine antiproliferative effect of drugs tumor cells were seeded at 2×10^5 cells/ml density and treated with compounds at indicated concentrations. The cultures were maintained at 37° C. in 5% v/v CO2 for 72 h. Cell number and viability were evaluated by Trypan blue exclusion test. Viable cells were expressed as percentage respect to cells treated with vehicle (=100%). Mean and SD values of at least three different experiments are shown.
(§2) U87 and U251 cells were purchased from European Collection of Cell Cultures (ECACC, Salisbury, UK) and were cultured in DMEM medium supplemented with 10% Foetal Bovine Serum. In order to determine antiproliferative effect of drugs tumor cells were seeded at 2×10^5 cells/ml density and treated with compounds at indicated concentrations. The cultures were maintained at 37° C. in 5% v/v CO2 for 72 h. Cell number and viability were evaluated by Trypan blue exclusion test. Viable cells were expressed as percentage respect to untreated cells (=100%/). Mean and SD values of at least three different experiments are shown.

SH-SY5Y cells = test: Cell cycle analysis; assay type: cell-based, human
Method: Cells (SH-SY5Y) were seeded in 60-mm petri dishes at a density of 3×10^5. After treatment and subsequent incubation for 24 h at 37° C. and 5% CO2 in humidified atmosphere, harvested cells were washed and fixed overnight with 70% ethanol. Then, ethanol was removed by centrifugation and the cells resuspended in PBS, stained with 50 μg/mL propidium iodide (PI) at 4° C. for 30 min in the dark. Stained cells were analyzed by Tali image based cytometer (Life Technologies, Carlsbad, Calif., USA) counting 20 fields for sample and exported fcs raw data were elaborated by Flowing software (v. 2.5.0, by Perttu Terho, University of Turku, Finland).

[7] = In vivo pharmacokinetics / biodistribution; set-up: species or system mice; conditions: administered compound itself, 50 mg/Kg i.p., BALB/C mice
Method: The animal protocols used were reviewed and approved by the Animal Care and Ethics Committee of the Universita{grave over ( )} degli Studi di Siena, Italy. Male BALB/C mice (weight 20-30 g) were obtained from Charles River (Milan, Italy). […] The blood, previously heparinized, was centrifuged at 4000 rpm for 20 minutes to separate the plasma fraction and then 500 μl were collected in a test tube. […] Samples were centrifuged at 4000 rpm for 20 minutes, the supernatant was recovered, dried under vacuum and analyzed by LC-UV-MS. Brain was homogenized using a glass/glass Potter-Elvehjem homogenizer in presence of Tris-HCl buffer (50 mM) and compounds were recovered using 7 mL of ACN then treated as previously described for blood samples.

U251 cells = test: Proliferation assay on U251 cells; assay type: cell-based, human
Method: as §1, §2

PAMPA, BBB permeability = conditions: Membrane Retention, BBB

T1 sequence (P12931 whole entry): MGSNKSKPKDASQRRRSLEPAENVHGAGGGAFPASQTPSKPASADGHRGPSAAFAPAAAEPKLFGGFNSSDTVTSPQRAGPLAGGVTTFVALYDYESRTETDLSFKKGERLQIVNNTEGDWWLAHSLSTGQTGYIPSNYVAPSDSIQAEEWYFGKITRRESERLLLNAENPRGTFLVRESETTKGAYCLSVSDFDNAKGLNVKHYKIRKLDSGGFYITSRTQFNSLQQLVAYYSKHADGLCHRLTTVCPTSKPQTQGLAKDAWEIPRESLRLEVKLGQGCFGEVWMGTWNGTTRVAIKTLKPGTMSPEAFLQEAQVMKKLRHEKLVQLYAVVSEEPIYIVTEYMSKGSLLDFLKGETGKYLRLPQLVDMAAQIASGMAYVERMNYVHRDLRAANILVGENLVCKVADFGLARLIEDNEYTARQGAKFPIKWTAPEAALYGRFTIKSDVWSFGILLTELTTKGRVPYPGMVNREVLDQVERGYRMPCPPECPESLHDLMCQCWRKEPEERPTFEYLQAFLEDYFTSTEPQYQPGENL

SMILES: ClC(Cn1ncc2c(Nc3cccc(Br)c3)nc(SCCN3CCOCC3)nc21)c1ccccc1 (centres unmarked) [Si306, N-(3-Bromophenyl)-1-(2-chloro-2-phenylethyl)-6-[(2-morpholin-4-ylethyl)thio]-1H-pyrazolo[3,4-d]pyrimidin-4-amine]
- Metabolic Stab. % ([1]; percentage of unmodified drug, Table 8): 97.2%
- Metabolic Stab. ([1]; percentage of unmodified parent drug, human liver microsomes 60 min): 96%
- survival of mice respect to control group (U87 cells [2]): significant ability in prolonging survival
- angiogenesis, number of sprouts per spheroid (hBMEC endothelial cells): significant reduction of angiogenesis
- reduction of tumor weight vs CTR (U87 cells [3]; 50 mg/kg every other day for 30 days, alone): about 50%
- myofibroblast content (alpha-SMA expression) in tumor masses (U87 cells [3]; immunohistochemistry of excised tumors): reduction of myofibroblast content
- PAMPA GI (MR %) [4]: (46.1) %
- Ki (Recombinant human Src; mean of at least two experiments, read-out: Enzymatic Data (Ki, μM) c-Src): 0.13 µM
- Ki (Recombinant human Src; read-out: Ki c-Src): ~0.1 µM
- tumour growth inhibition ([5]; 50 mg/kg): significantly inhibited
- signs of distress or weight loss ([5]; 50 mg/kg daily oral): did not shown signs of distress or weight loss
- reduction in mean tumor volume compared to placebo ([5]; 50 mg/kg daily oral, 60 days): more than 50%
- reduction of the total cell number vs control (U87 cells [6]; U87, 5 μM, 72 h): about 50%
- dead cells (U87 cells [6]; U87, 30 μM, 72 h): more than 80%
- antiproliferative effect in combination with mitomycin C (U87 cells [6]; U87, 72 h, 1 μM Si306 plus increasing mitomycin C): synergic antiproliferative effect
- apoptosis, treated cells (SH-SY5Y cells; 10 μM): about 50%
- accumulation of cells in the G1 phase of cell cycle (SH-SY5Y cells; 0.1-10 μM, starting from 0.1 μM): significant and dose-dependent accumulation
- Quantity of Compound, BLOOD ([7]; 30′): 10.2 ± 4.82 nmol of compound/g of tissue
- Quantity of Compound, BLOOD ([7]; 4 h): 2.6 ± 1.31 nmol of compound/g of tissue
- Quantity of Compound, BLOOD ([7]; 8 h): 2.4 ± 0.29 nmol of compound/g of tissue
- Quantity of Compound, BLOOD ([7]; 24 h): 1.1 ± 0.65 nmol of compound/g of tissue
- Quantity of Compound, BRAIN ([7]; 15′): 0.3 ± 0.18 nmol of compound/g of tissue
- Quantity of Compound, BRAIN ([7]; 24 h): 2.3 ± 0.70 nmol of compound/g of tissue
- reduction of the total cell number vs control (U251 cells; U251, 5 μM, 72 h): about 50%
- antiproliferative effect in combination with mitomycin C (U251 cells; U251, 72 h, 1 μM Si306 plus increasing mitomycin C): synergic antiproliferative effect
- PAMPA BBB (MR %) (PAMPA, BBB permeability): (41.0) %
